In the experiment the target is T1, recombinant mouse NPY5-receptor (mNPY5) (Mus musculus, UniProt O70342).
T1 construct: The full-length cDNA encoding the mouse NPY5 (mNPY5) receptor was amplified from mouse brain cDNA; expressed in transfected cells; membranes used
T1 sequence (O70342 1-466): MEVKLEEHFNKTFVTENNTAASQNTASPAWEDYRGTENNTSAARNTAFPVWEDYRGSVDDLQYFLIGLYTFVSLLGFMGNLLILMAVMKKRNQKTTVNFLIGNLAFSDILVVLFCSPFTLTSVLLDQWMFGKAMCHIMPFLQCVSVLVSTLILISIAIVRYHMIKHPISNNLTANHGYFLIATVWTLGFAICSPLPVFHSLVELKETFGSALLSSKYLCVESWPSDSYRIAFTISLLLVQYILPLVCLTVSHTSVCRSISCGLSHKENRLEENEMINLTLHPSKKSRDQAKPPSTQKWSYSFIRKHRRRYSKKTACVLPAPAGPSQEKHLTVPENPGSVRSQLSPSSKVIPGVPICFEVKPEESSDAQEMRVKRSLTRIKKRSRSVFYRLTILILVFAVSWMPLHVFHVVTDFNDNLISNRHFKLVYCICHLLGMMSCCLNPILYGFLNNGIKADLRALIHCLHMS
In words: Radioligand competition binding. Particulars: displacement of 100 pM [125I]labelled peptide YY (PYY), membranes of HEK293 cells expressing mNPY5, 1 h at 22° C. The text has this: The full-length cDNA encoding the mouse NPY5 (mNPY5) receptor was amplified from mouse brain cDNA using specific primers, designed based on the published sequence, and Pfu DNA-Polymerase (Stratagene). The amplification product was subcloned into the mammalian expression vector pcDNA3 using Eco RI and XhoI restriction sites. Positive clones were sequenced and one clone, encoding the published sequence (see Borowsky B., et al., Regul. Pept., 75-76:45-53 (1998)) was selected for generation of stable cell clones.
Human embryonic kidney 293 (HEK293) (ATCC No. CRL-1573) cells were transfected with 10 μg mNPY5 DNA using the lipofectamine reagent (Gibco BRL) according to the manufacturer's instruction. Two days after transfection, geneticin selection (1 mg/ml) was initiated and several stable clones were isolated. One clone was further used for pharmacological characterization.
Human embryonic kidney 293 cells (HEK293), expressing recombinant mouse NPY5-receptor (mNPY5) were broken by three freeze/thawing cycles in hypotonic Tris buffer (5 mM, pH 7.4, 1 mM MgCl2), homogenized and centrifuged at 72,000×g for 15 min. […] Protein was determined according to the method of Lowry using bovine serum albumine (BSA) as a standard. […]
In general terms: Loss of bound radioactivity is the signal in a displacement assay; it reports binding, not function.

For orientation: IC50 means the concentration that gives 50% inhibition.

For the compound `Cc1cc(N2CCCC2)c2ccc(NC(=O)c3ccco3)cc2n1` [Example 54, furan-2-carboxylic acid (2-methyl-4-pyrrolidin-1-yl-quinolin-7-yl)-amide], the IC50 was found to be 300 pM.
Then `Cc1cc(N2CCCC2)c2ccc(NCC(C)C)cc2n1` [Example 2, isobutyl-(2-methyl-4-pyrrolidin-1-yl-quinolin-7-yl)-amine], with 700 pM.

The values above are taken from US6696467B2, “Quinoline derivatives” (Hoffmann-La Roche Inc., priority 2002, dated 2004).
